# Source: US20130345419A1, “AZOLE DERIVATIVE” (TAISHO PHARMACEUTICAL CO., LTD., priority 2011, published 2013)
# pIC50: −log10 of the molar value.
# System: proliferating cell nuclear antigen (PCNA)
# Assay: Test 6: anagen induction stimulating effect in shaven mouse model, skin PCNA by ELISA
# Assay type: in vivo
# Settings: 5% (w/v) in 80% ethanol, 200 μL once daily for 2 days, skin sampled about 4 hours after second administration, C57BL mice
# Experimental: (Test 6) Test for Measuring Anagen Induction Stimulating Effect in Shave Mouse Model
# The anagen induction stimulating effect of a compound was measured by the following method with the quantity of skin PCNA being used as an index.
# C57BL mice (female, ca. 7-wk old) were shaven on the back and a base (80% ethanol) or a solution prepared by dissolving 5% (w/v) of Compound 40, 52, 59, 61, 63, 64 or 66 in this base was administered by applying them to the shaven area in 200-μL portions once daily for 2 days starting 3 days after the shaving (each group consisting of 5 heads.) About 4 hours after the administration on the second day, the skin at the application site was sampled and homogenized in a buffer containing 50 mM Tris-HCl (pH 7.6), 150 mM NaCl, 1% NP-40, and a protease inhibitor. By a centrifugal separation procedure, a PCNA containing protein solution was prepared and the quantity of PCNA in the solution was measured with a PCNA-ELISA kit of Calbiochem, Inc.
Structure (SMILES),quantity of skin PCNA versus base administered group,skin PCNA levels relative to base administered group
"CC1(C)CC(C)(C)CC(O)(C(F)(F)C(=O)N2CCC[C@H]2c2cc(COc3ccccc3)on2)C1 [Compound 52, (S)-2,2-Difluoro-2-(1-hydroxy-3,3,5,5-tetramethylcyclohexyl)-1-(2-(5-(phenoxymethyl)isoxazol-3-yl)pyrrolidin-1-yl)ethanone]",increases in the quantity of skin PCNA,–
CC1(C)CC(C)(C)CC(O)(C(F)(F)C(=O)N2CCC[C@H]2c2cc(COc3cncnc3)on2)C1 [Compound 59],increases in the quantity of skin PCNA,–
"CC1(C)CC(C)(C)CC(O)(C(F)(F)C(=O)N2CCC[C@H]2c2cc(Cn3ccc(=O)nc3)on2)C1 [Compound 61, (S)-1-((3-(1-(2,2-Difluoro-2-(1-hydroxy-3,3,5,5-tetramethylcyclohexyl)acetyl)pyrrolidin-2-yl)isoxazol-5-yl)methyl)pyrimidin-4(1H)-one]",increases in the quantity of skin PCNA,–
"CC1(C)CC(C)(C)CC(O)(C(F)(F)C(=O)N2CCC[C@H]2c2cc(Cn3ccc(=O)cc3)on2)C1 [Compound 66, (S)-1-((3-(1-(2,2-Difluoro-2-(1-hydroxy-3,3,5,5-tetramethylcyclohexyl)acetyl)pyrrolidin-2-yl)isoxazol-5-yl)methyl)pyridin-4(1H)-one]",–,approximately 1.4 times

# Biological target: T1, human recombinant FKBP12 (Homo sapiens, UniProt P62942)
# T1 construct: purchased Sigma F-5398
# Assay: Test 1: immunophilin FKBP12 rotamase (peptidylprolyl isomerase) inhibiting activity
# Assay type: biochemical
# Settings: 12 nM human recombinant FKBP12, substrate succinyl-Ala-Phe-Pro-Phe-paranitroanilide 48 μM, 4° C.; read-out: PKBP12 rotamase inhibiting activity IC50
# Experimental: (Test 1) Test for Measuring Immunophilin FKBP12 Rotamase Activity
# The rotamase (peptidylprolyl isomerase) inhibiting activity of each test compound was measured by a known method (Harding et al., Nature 341, 758-760, 1989; Holts et al., J. Am. Chem. Soc. 115, 9925-9938, 1993.) To be more specific, a plastic cuvette was charged with 35 mM HEPES (pH 7.8), 12 nM human recombinant FKBP12 (Sigma, F-5398), 0.4 mg/mL α-chymotrypsin, and a test compound dissolved in DMSO at varying concentrations (DMSO's final concentration was 0.1%.) Subsequently, 24 mM of the substrate peptide, succinyl-Ala-Phe-Pro-Phe-paranitroanilide, as dissolved in trifluoroethanol containing 500 mM of LiCl was added to give a final concentration of 48 μM, whereupon reaction started. The reaction was carried out at 4° C. and the change in absorbance at 390 nm accompanying the liberation of the paranitroaniline product was monitored. A calculated initial rate minus the corresponding value in the absence of the enzyme was used as an index of rotamase activity. The rotamase inhibiting activity of a test compound was expressed in relative values (%) with respect to the control value of rotamase activity in the absence of the compound, and the concentration of the compound at which it was capable of inhibiting rotamase activity by 50% was calculated as an IC50 value from its concentration response curve.
# T1 sequence (P62942 whole entry): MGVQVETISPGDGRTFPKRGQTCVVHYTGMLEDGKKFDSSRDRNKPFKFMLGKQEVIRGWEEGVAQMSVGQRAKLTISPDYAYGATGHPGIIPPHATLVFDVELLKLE
row,Structure (SMILES),pIC50
1,"COc1ccc(OCc2cc([C@@H]3CCCN3C(=O)C(F)(F)C3(O)CC(C)(C)CC(C)(C)C3)no2)cn1 [Compound 41, (S)-2,2-Difluoro-2-(1-hydroxy-3,3,5,5-tetramethylcyclohexyl)-1-(2-(5-(((6-methoxypyridin-3-yl)oxy)methyl)isoxazol-3-yl)pyrrolidin-1-yl)ethanone]",6.82
2,"CC1(C)CC(C)(C)CC(O)(C(F)(F)C(=O)N2CCC[C@H]2c2cc(CN)on2)C1 [Compound 42, (S)-1-(2-(5-(Aminomethyl)isoxazol-3-yl)pyrrolidin-1-yl)-2,2-difluoro-2-(1-hydroxy-3,3,5,5-tetramethylcyclohexyl)ethanone]",6.35
3,"COc1ccc(OCc2cc([C@@H]3CCCN3S(=O)(=O)CC3CCCCC3)no2)cc1OC [Compound 43, (S)-3-(1-((Cyclohexylmethyl)sulfonyl)pyrrolidin-2-yl)-5-((3,4-dimethoxyphenoxy)methyl)isoxazole]",6.83
4,"CC1(C)CC(C)(C)CC(O)(C(F)(F)C(=O)N2CCC[C@H]2c2cc(CNC(=O)c3ccccc3)on2)C1 [Compound 44, (S)—N-((3-(1-(2,2-Difluoro-2-(1-hydroxy-3,3,5,5-tetramethylcyclohexyl)acetyl)pyrrolidin-2-yl)isoxazol-5-yl)methyl)benzamide]",6.78
5,"CC1(C)CC(C)(C)CC(O)(C(F)(F)C(=O)N2CCC[C@H]2c2cc(CNS(=O)(=O)c3ccccc3)on2)C1 [Compound 45, (S)—N-((3-(1-(2,2-Difluoro-2-(1-hydroxy-3,3,5,5-tetramethylcyclohexyl)acetyl)pyrrolidin-2-yl)isoxazol-5-yl)methyl)benzenesulfonamide]",7.00
6,"CN(C)Cc1cc([C@@H]2CCCN2C(=O)C(F)(F)C2(O)CC(C)(C)CC(C)(C)C2)no1 [Compound 46, (S)-1-(2-(5-((Dimethylamino)methyl)isoxazol-3-yl)pyrrolidin-1-yl)-2,2-difluoro-2-(1-hydroxy-3,3,5,5-tetramethylcyclohexyl)ethanone]",6.51
7,CC1(C)CC(C)(C)CC(O)(C(F)(F)C(=O)N2CCC[C@H]2c2cc(CN3CCOCC3)on2)C1 [Compound 47],6.60
8,CC1(C)CC(C)(C)CC(O)(C(F)(F)C(=O)N2CCC[C@H]2c2cc(CNC(=O)Cc3ccccc3)on2)C1 [Compound 48],7.03
9,CC1(C)CC(C)(C)CC(O)(C(F)(F)C(=O)N2CCC[C@H]2c2cc(C(C)(C)O)on2)C1 [Compound 49],6.00 to 6.30
10,COc1ccc(C(=O)NCc2cc([C@@H]3CCCN3C(=O)C(F)(F)C3(O)CC(C)(C)CC(C)(C)C3)no2)cc1OC [Compound 50],6.93
11,COc1ccc(CC(=O)NCc2cc([C@@H]3CCCN3C(=O)C(F)(F)C3(O)CC(C)(C)CC(C)(C)C3)no2)cc1OC [Compound 51],7.13
12,"CC1(C)CC(C)(C)CC(O)(C(F)(F)C(=O)N2CCC[C@H]2c2cc(COc3ccccc3)on2)C1 [Compound 52, (S)-2,2-Difluoro-2-(1-hydroxy-3,3,5,5-tetramethylcyclohexyl)-1-(2-(5-(phenoxymethyl)isoxazol-3-yl)pyrrolidin-1-yl)ethanone]",6.69
13,"CC1(C)CC(C)(C)CC(O)(C(F)(F)C(=O)N2CCC[C@H]2c2cc(COc3ccnnc3)on2)C1 [Compound 53, (S)-2,2-Difluoro-2-(1-hydroxy-3,3,5,5-tetramethylcyclohexyl)-1-(2-(5-((pyridazin-4-yloxy)methyl)isoxazol-3-yl)pyrrolidin-1-yl)ethanone]",7.07
14,"CC1(C)CC(C)(C)CC(O)(C(F)(F)C(=O)N2CCC[C@H]2c2cc(COc3ccccn3)on2)C1 [Compound 54, (S)-2,2-Difluoro-2-(1-hydroxy-3,3,5,5-tetramethylcyclohexyl)-1-(2-(5-((pyridin-2-yloxy)methyl)isoxazol-3-yl)pyrrolidin-1-yl)ethanone]",6.54
15,"CC1(C)CC(C)(C)CC(O)(C(F)(F)C(=O)N2CCC[C@H]2c2cc(COc3cnccn3)on2)C1 [Compound 55, (S)-2,2-Difluoro-2-(1-hydroxy-3,3,5,5-tetramethylcyclohexyl)-1-(2-(5-((pyrazin-2-yloxy)methyl)isoxazol-3-yl)pyrrolidin-1-yl)ethanone]",6.64
16,"CC1(C)CC(C)(C)CC(O)(C(F)(F)C(=O)N2CCC[C@H]2c2cc(COc3cccnn3)on2)C1 [Compound 56, (S)-2,2-Difluoro-2-(1-hydroxy-3,3,5,5-tetramethylcyclohexyl)-1-(2-(5-((pyridazin-3-yloxy)methyl)isoxazol-3-yl)pyrrolidin-1-yl)ethanone]",6.48
17,"CC1(C)CC(C)(C)CC(O)(C(F)(F)C(=O)N2CCC[C@H]2c2cc(COc3ccncc3)on2)C1 [Compound 57, (S)-2,2-Difluoro-2-(1-hydroxy-3,3,5,5-tetramethylcyclohexyl)-1-(2-(5-((pyridin-4-yloxy)methyl)isoxazol-3-yl)pyrrolidin-1-yl)ethanone]",7.10
18,"CC1(C)CC(C)(C)CC(O)(C(F)(F)C(=O)N2CCC[C@H]2c2cc(COc3ncccn3)on2)C1 [Compound 58, (S)-2,2-Difluoro-2-(1-hydroxy-3,3,5,5-tetramethylcyclohexyl)-1-(2-(5-((pyrimidin-2-yloxy)methyl)isoxazol-3-yl)pyrrolidin-1-yl)ethanone]",6.60
19,CC1(C)CC(C)(C)CC(O)(C(F)(F)C(=O)N2CCC[C@H]2c2cc(COc3cncnc3)on2)C1 [Compound 59],6.91
20,"CC1(C)CC(C)(C)CC(O)(C(F)(F)C(=O)N2CCC[C@H]2c2cc(Cn3ccccc3=O)on2)C1 [Compound 60, (S)-1-((3-(1-(2,2-Difluoro-2-(1-hydroxy-3,3,5,5-tetramethylcyclohexyl)acetyl)pyrrolidin-2-yl)isoxazol-5-yl)methyl)pyridin-2(1H)-one]",6.42
21,"CC1(C)CC(C)(C)CC(O)(C(F)(F)C(=O)N2CCC[C@H]2c2cc(Cn3ccc(=O)nc3)on2)C1 [Compound 61, (S)-1-((3-(1-(2,2-Difluoro-2-(1-hydroxy-3,3,5,5-tetramethylcyclohexyl)acetyl)pyrrolidin-2-yl)isoxazol-5-yl)methyl)pyrimidin-4(1H)-one]",6.82
22,"CC1(C)CC(C)(C)CC(O)(C(F)(F)C(=O)N2CCC[C@H]2c2cc(Cn3cnccc3=O)on2)C1 [Compound 62, (S)-3-((3-(1-(2,2-Difluoro-2-(1-hydroxy-3,3,5,5-tetramethylcyclohexyl)acetyl)pyrrolidin-2-yl)isoxazol-5-yl)methyl)pyrimidin-4(3H)-one]",6.68
23,Cc1ccc(OCc2cc([C@@H]3CCCN3C(=O)C(F)(F)C3(O)CC(C)(C)CC(C)(C)C3)no2)cc1 [Compound 65],6.62
